# Reference: patent US10624946B2, “Treating liver diseases” (Mayo Foundation for Medical Education and Research, priority 2005, dated 2020)
# Legend:
# PCK rats [1] = assay: Hepatic and renal cyst volume and fibrosis score in PCK rats treated with octreotide; format: in vivo, rat
# Description: (§1) Three week old PCK rats (n=60) were divided into five groups (three animals of each gender per treatment group). Each group was divided into two subgroups. […] Each animal was injected intraperitoneally every 12 hours. […] The control groups received an equal volume of saline.
# (§2) At 4, 8, 12 and 16 weeks of age, animals were anesthetized with pentobarbital (50 mg/kg body weight, ip). Blood was collected by cardiac puncture for determination of hepatic and renal laboratory parameters and cAMP levels. Liver and kidney tissue sections (5 μm) were stained with hematoxylin-eosin and picrosirius red for analysis using light microscopy. Renal and hepatic fibrosis and cystic scores were measured using Meta-Morph software (Universal Imaging, West Chester, Pa., USA), a light microscope with a color digital camera (Nikon DXM 1200), and a Pentium IBM-compatible computer (Del OptiPlex). To measure the volume of a cyst or fibrosis, a colored threshold was applied at a level that allowed cystic tissue to be distinguished from non-cystic tissue and picrosirius red-positive stained fibrotic tissue to be distinguished from the background. The cystic and fibrotic scores were expressed as a percentage of total tissue.
# PCK rats [2] = assay: Hepatic and renal laboratory parameters in PCK rats treated with octreotide; conditions: for Alkaline Phosphatase / Aspartate Aminotransferase / Bilirubin Direct / Bilirubin Total / Blood Urea Nitrogen / Creatinine / Protein total: Octreotide (10 μg)
# Description: as §1, §2
# [3] = target: somatostatin receptor 2 (SSTR2) (Homo sapiens, UniProt P30874); conditions: Froidevaux and Eberle 2002; cited from earlier work
# SSTR3 = SSTR3 (Homo sapiens, UniProt P32745); conditions: Froidevaux and Eberle 2002; cited from earlier work
# [4] = test system: cAMP levels in bile ducts and serum of PCK rats; assay: cAMP levels in freshly isolated bile ducts and serum of PCK rats treated with octreotide; format: in vivo, rat
# Description: The concentration of cAMP was measured in freshly isolated and cultured bile ducts and in serum. Serum was diluted 1:10 before assay. Cultured bile ducts were first released from the gel by adding 0.4 mL of high-activity type XI collagenase for 45 min. at 37° C. and washing twice with medium. cAMP concentrations were determined using the Bridge-It™ cAMP designer assay (Mediomics, LLC, St. Louis, Mo.). Results were expressed as pmol per μg of DNA. The amount of DNA in a single IBDU was determined using the DNeasy Tissue Kit (QIAGEN Inc., Valencia, Calif.).
# (§3) Each group was divided into two subgroups. […] Each animal was injected intraperitoneally every 12 hours. […] The control groups received an equal volume of saline.
# PCK rats [5] = assay: Body, liver and kidney weight in PCK rats treated with octreotide; format: in vivo, rat
# Description: as §3
# [6] = octreotide 10 μg/kg, 4 to 16 weeks
# [7] = Female PCK rats, Group I, 4 weeks of treatment
# [8] = Female PCK rats, Group II, 8 weeks of treatment
# [9] = Female PCK rats, Group III, 12 weeks of treatment
# [10] = Female PCK rats, Group IV, 16 weeks of treatment
# [11] = Female PCK rats, HD, 4 weeks of treatment
# [12] = Male PCK rats, Group I, 4 weeks of treatment
# [13] = Male PCK rats, Group II, 8 weeks of treatment
# [14] = Male PCK rats, Group III, 12 weeks of treatment
# [15] = Male PCK rats, Group IV, 16 weeks of treatment
# [16] = Male PCK rats, HD, 4 weeks of treatment
# [17] = 100 μg/kg, 4 weeks, vs 10 μg/kg
# [18] = octreotide-treated vs saline-treated PCK rats
# [19] = Female PCK rats, Group I, 4 weeks of treatment, Octreotide (10 μg)
# [20] = Female PCK rats, Group II, 8 weeks of treatment, Octreotide (10 μg)
# [21] = Female PCK rats, Group III, 12 weeks of treatment, Octreotide (10 μg)
# [22] = Female PCK rats, Group IV, 16 weeks of treatment, Octreotide (10 μg)
# [23] = Female PCK rats, HD, 4 weeks of treatment, Octreotide (100 μg)
# [24] = Male PCK rats, Group I, 4 weeks of treatment, Octreotide (10 μg)
# [25] = Male PCK rats, Group II, 8 weeks of treatment, Octreotide (10 μg)
# [26] = Male PCK rats, Group III, 12 weeks of treatment, Octreotide (10 μg)
# [27] = Male PCK rats, Group IV, 16 weeks of treatment, Octreotide (10 μg)
# [28] = Male PCK rats, HD, 4 weeks of treatment, Octreotide (100 μg)
# Chain of SSTR3 (P32745 whole entry, species assumed): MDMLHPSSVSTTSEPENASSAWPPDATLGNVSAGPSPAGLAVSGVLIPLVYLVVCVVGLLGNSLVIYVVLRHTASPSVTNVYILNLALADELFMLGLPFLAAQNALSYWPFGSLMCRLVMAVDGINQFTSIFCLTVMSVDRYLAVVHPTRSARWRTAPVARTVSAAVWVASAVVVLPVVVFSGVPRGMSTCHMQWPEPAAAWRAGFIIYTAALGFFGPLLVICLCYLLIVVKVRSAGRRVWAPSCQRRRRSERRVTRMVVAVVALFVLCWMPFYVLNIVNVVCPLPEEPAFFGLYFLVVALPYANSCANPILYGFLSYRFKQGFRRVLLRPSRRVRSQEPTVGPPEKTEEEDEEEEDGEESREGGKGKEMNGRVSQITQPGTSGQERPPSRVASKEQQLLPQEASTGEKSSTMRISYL
# Chain of somatostatin receptor 2 (SSTR2) (P30874 whole entry, species assumed): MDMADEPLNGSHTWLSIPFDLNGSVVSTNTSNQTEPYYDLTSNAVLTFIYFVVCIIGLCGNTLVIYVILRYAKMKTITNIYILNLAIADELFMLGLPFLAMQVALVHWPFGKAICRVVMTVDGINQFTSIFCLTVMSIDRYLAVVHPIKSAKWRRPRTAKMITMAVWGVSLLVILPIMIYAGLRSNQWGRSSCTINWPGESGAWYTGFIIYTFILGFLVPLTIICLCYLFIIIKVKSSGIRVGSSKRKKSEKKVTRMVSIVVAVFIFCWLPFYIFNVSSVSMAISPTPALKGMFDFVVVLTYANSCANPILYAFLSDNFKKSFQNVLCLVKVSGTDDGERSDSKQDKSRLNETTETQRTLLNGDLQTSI
smiles,measurement,setting,value
"C[C@@H](O)[C@@H]1NC(=O)[C@H](CCCCN)NC(=O)[C@@H](Cc2c[nH]c3ccccc23)NC(=O)[C@H](Cc2ccccc2)NC(=O)[C@@H](NC(=O)[C@H](N)Cc2ccccc2)CSSC[C@@H](C(=O)N[C@H](CO)[C@@H](C)O)NC1=O [Octreotide, octreotide]",cystic volume and fibrosis score in liver and kidney at higher dose,"PCK rats [1]; higher dose (100 μg/kg, 4 weeks)",even more significant reduction
same,hepatic fibrosis,PCK rats [1]; octreotide 10 μg/kg,significant reduction
same,renal fibrosis,PCK rats [1]; octreotide 10 μg/kg,significant reduction
same,cystic volume in kidney,PCK rats [1]; [6],decreased consistently and progressively
same,cystic volume in liver,PCK rats [1]; [6],decreased consistently and progressively
same,Alkaline Phosphatase,PCK rats [2]; [7],238.5 ± 23.5 U/L
same,Aspartate Aminotransferase,PCK rats [2]; [7],135.0 ± 11.4 U/L
same,Bilirubin Direct,PCK rats [2]; [7],0.1 mg/dL
same,Bilirubin Total,PCK rats [2]; [7],0.2 mg/dL
same,Blood Urea Nitrogen,PCK rats [2]; [7],16.7 ± 0.3 mg/dL
same,Creatinine,PCK rats [2]; [7],0.55 ± 0.06 mg/dL
same,Protein total,PCK rats [2]; [7],5.70 ± 0.20 g/dL
same,Aspartate Aminotransferase,PCK rats [2]; [8],211.2 ± 48.4 U/L
same,Bilirubin Direct,PCK rats [2]; [8],0.1 mg/dL
same,Bilirubin Total,PCK rats [2]; [8],0.23 ± 0.03 mg/dL
same,Blood Urea Nitrogen,PCK rats [2]; [8],15.7 ± 1.2 mg/dL
same,Creatinine,PCK rats [2]; [8],0.57 ± 0.03 mg/dL
same,Protein total,PCK rats [2]; [8],5.53 ± 0.18 g/dL
same,Alkaline Phosphatase,PCK rats [2]; [9],237.0 ± 22.1 U/L
same,Aspartate Aminotransferase,PCK rats [2]; [9],207.5 ± 31.5 U/L
same,Bilirubin Direct,PCK rats [2]; [9],0.1 mg/dL
same,Bilirubin Total,PCK rats [2]; [9],0.2 mg/dL
same,Blood Urea Nitrogen,PCK rats [2]; [9],20.5 ± 0.5 mg/dL
same,Creatinine,PCK rats [2]; [9],0.6 mg/dL
same,Protein total,PCK rats [2]; [9],5.2 ± 0.17 g/dL
same,Alkaline Phosphatase,PCK rats [2]; [10],156.7 ± 4.3 U/L
same,Aspartate Aminotransferase,PCK rats [2]; [10],165.0 ± 36.46 U/L
same,Bilirubin Direct,PCK rats [2]; [10],0.1 mg/dL
same,Bilirubin Total,PCK rats [2]; [10],0.2 mg/dL
same,Blood Urea Nitrogen,PCK rats [2]; [10],20.5 ± 0.9 mg/dL
same,Creatinine,PCK rats [2]; [10],0.63 ± 0.03 mg/dL
same,Protein total,PCK rats [2]; [10],5.6 ± 0.08 g/dL
same,Alkaline Phosphatase,PCK rats [2]; [11],292.5 ± 14.3 U/L
same,Aspartate Aminotransferase,PCK rats [2]; [11],197.4 ± 25.7 U/L
same,Bilirubin Direct,PCK rats [2]; [11],0.1 mg/dL
same,Bilirubin Total,PCK rats [2]; [11],0.2 mg/dL
same,Blood Urea Nitrogen,PCK rats [2]; [11],17.0 ± 2.6 mg/dL
same,Creatinine,PCK rats [2]; [11],0.6 mg/dL
same,Protein total,PCK rats [2]; [11],5.3 ± 0.12 g/dL
same,Alkaline Phosphatase,PCK rats [2]; [12],264.5 ± 41.5 U/L
same,Aspartate Aminotransferase,PCK rats [2]; [12],212.7 ± 41.1 U/L
same,Bilirubin Direct,PCK rats [2]; [12],0.1 mg/dL
same,Bilirubin Total,PCK rats [2]; [12],0.17 ± 0.0 mg/dL
same,Blood Urea Nitrogen,PCK rats [2]; [12],16.0 ± 0.6 mg/dL
same,Creatinine,PCK rats [2]; [12],0.49 ± 0.04 mg/dL
same,Protein total,PCK rats [2]; [12],5.74 ± 0.19 g/dL
same,Alkaline Phosphatase,PCK rats [2]; [13],305.3 ± 20.4 U/L
same,Aspartate Aminotransferase,PCK rats [2]; [13],188.1 ± 20.6 U/L
same,Bilirubin Direct,PCK rats [2]; [13],0.1 mg/dL
same,Bilirubin Total,PCK rats [2]; [13],0.2 mg/dL
same,Blood Urea Nitrogen,PCK rats [2]; [13],18.3 ± 1.6 mg/dL
same,Creatinine,PCK rats [2]; [13],0.6 mg/dL
same,Protein total,PCK rats [2]; [13],5.22 ± 1.4 g/dL
same,Alkaline Phosphatase,PCK rats [2]; [14],210.5 ± 24.5 U/L
same,Aspartate Aminotransferase,PCK rats [2]; [14],181.7 ± 39.2 U/L
same,Bilirubin Direct,PCK rats [2]; [14],0.1 mg/dL
same,Bilirubin Total,PCK rats [2]; [14],0.3 mg/dL
same,Blood Urea Nitrogen,PCK rats [2]; [14],21.5 ± 1.5 mg/dL
same,Creatinine,PCK rats [2]; [14],0.6 mg/dL
same,Protein total,PCK rats [2]; [14],5.2 ± 0.03 g/dL
same,Alkaline Phosphatase,PCK rats [2]; [15],189.5 ± 18.5 U/L
same,Aspartate Aminotransferase,PCK rats [2]; [15],145.1 ± 49.51 U/L
same,Bilirubin Direct,PCK rats [2]; [15],0.1 mg/dL
same,Bilirubin Total,PCK rats [2]; [15],0.2 mg/dL
same,Blood Urea Nitrogen,PCK rats [2]; [15],20.3 ± 0.8 mg/dL
same,Creatinine,PCK rats [2]; [15],0.65 ± 0.05 mg/dL
same,Protein total,PCK rats [2]; [15],5.4 ± 0.35 g/dL
same,Alkaline Phosphatase,PCK rats [2]; [16],276.8 ± 31.2 U/L
same,Aspartate Aminotransferase,PCK rats [2]; [16],191.0 ± 24.4 U/L
same,Bilirubin Direct,PCK rats [2]; [16],0.1 mg/dL
same,Bilirubin Total,PCK rats [2]; [16],0.2 mg/dL
same,Blood Urea Nitrogen,PCK rats [2]; [16],17.1 ± 1.2 mg/dL
same,Creatinine,PCK rats [2]; [16],0.5 mg/dL
same,Protein total,PCK rats [2]; [16],5.4 ± 0.15 g/dL
same,hepatic or renal function,PCK rats [2]; any dose administered (10 or 100 μg/kg ip every 12 hours),did not affect
same,binding affinity,[3],high affinity
same,binding affinity,SSTR3,low affinity
same,cAMP concentration in bile duct and serum at higher dose,[4]; [17],to an even greater extent
same,cAMP levels in freshly isolated bile ducts,[4]; [18],lowered
same,cAMP levels in serum,[4]; [18],lowered
same,effect on liver and kidney weights at higher dose,PCK rats [5]; [17],more significant effect
same,Kidney weight,PCK rats [5]; [19],1.31 ± 0.04 % body weight
same,"Kidney weight, decrease (↓) vs saline",PCK rats [5]; [19],(↓11.8%)
same,Liver weight,PCK rats [5]; [19],5.34 ± 00.24 % body weight
same,"Liver weight, decrease (↓) vs saline",PCK rats [5]; [19],(↓10.5%)
same,Kidney weight,PCK rats [5]; [20],1.35 ± 0.06 % body weight
same,"Kidney weight, decrease (↓) vs saline",PCK rats [5]; [20],(↓15.0%)
same,Liver weight,PCK rats [5]; [20],5.37 ± 0.22 % body weight
same,"Liver weight, decrease (↓) vs saline",PCK rats [5]; [20],(↓15.8%)
same,Kidney weight,PCK rats [5]; [21],1.42 ± 0.11 % body weight
same,"Kidney weight, decrease (↓) vs saline",PCK rats [5]; [21],(↓17.9%)
same,Liver weight,PCK rats [5]; [21],5.43 ± 0.24 % body weight
same,"Liver weight, decrease (↓) vs saline",PCK rats [5]; [21],(↓18.8%)
same,Kidney weight,PCK rats [5]; [22],1.48 ± 0.13 % body weight
same,"Kidney weight, decrease (↓) vs saline",PCK rats [5]; [22],(↓20.6%)
same,Liver weight,PCK rats [5]; [22],5.62 ± 0.25 % body weight
same,"Liver weight, decrease (↓) vs saline",PCK rats [5]; [22],(↓21.9%)
same,Kidney weight,PCK rats [5]; [23],1.14 ± 0.07 % body weight
same,"Kidney weight, decrease (↓) vs saline",PCK rats [5]; [23],(↓18.6%)
same,Liver weight,PCK rats [5]; [23],4.7 ± 0.35 % body weight
same,"Liver weight, decrease (↓) vs saline",PCK rats [5]; [23],(↓19.1%)
same,Kidney weight,PCK rats [5]; [24],1.43 ± 0.04 % body weight
same,"Kidney weight, decrease (↓) vs saline",PCK rats [5]; [24],(↓11.2%)
same,Liver weight,PCK rats [5]; [24],4.76 ± 0.07 % body weight
same,"Liver weight, decrease (↓) vs saline",PCK rats [5]; [24],(↓9.0%)
same,Kidney weight,PCK rats [5]; [25],1.52 ± 0.11 % body weight
same,"Kidney weight, decrease (↓) vs saline",PCK rats [5]; [25],(↓14.6%)
same,Liver weight,PCK rats [5]; [25],5.24 ± 0.57 % body weight
same,"Liver weight, decrease (↓) vs saline",PCK rats [5]; [25],(↓12.8%)
same,Kidney weight,PCK rats [5]; [26],1.53 ± 0.15 % body weight
same,"Kidney weight, decrease (↓) vs saline",PCK rats [5]; [26],(↓16.8%)
same,Liver weight,PCK rats [5]; [26],5.31 ± 0.46 % body weight
same,"Liver weight, decrease (↓) vs saline",PCK rats [5]; [26],(↓17.2%)
same,Kidney weight,PCK rats [5]; [27],1.57 ± 0.12 % body weight
same,"Kidney weight, decrease (↓) vs saline",PCK rats [5]; [27],(↓18.9%)
same,Liver weight,PCK rats [5]; [27],5.64 ± 0.14 % body weight
same,"Liver weight, decrease (↓) vs saline",PCK rats [5]; [27],(↓19.9%)
same,Kidney weight,PCK rats [5]; [28],1.27 ± 0.13 % body weight
same,"Kidney weight, decrease (↓) vs saline",PCK rats [5]; [28],(↓19.3%)
same,Liver weight,PCK rats [5]; [28],4.18 ± 0.11 % body weight
same,"Liver weight, decrease (↓) vs saline",PCK rats [5]; [28],(↓15.1%)
same,liver and kidney weights vs saline,PCK rats [5]; each group studied,significantly decreased
same,body weight vs saline-treated,PCK rats [5]; male or female PCK rats,No differences
